From patent US20060058328A1, “Use of N-aryl diazaspiracyclic compounds in the treatment of addiction” (priority 2004, published 2006)

Assays:
α4β2 subtype = α4β2 subtype (Homo sapiens, UniProt P17787+P43681); assay: In vitro pharmacology: antagonism at the α4β2 subtype; format: biochemical
Source text: (§1) Such disorders include substance abuse, tobacco use and weight gain that accompanies drug cessation.

[1] = test system: NNR subtypes affecting dopamine release; assay: Antagonism of dopamine release; format: biochemical; conditions: in vitro
Experimental: Dopamine release was measured using the techniques described in U.S. Pat. No. 5,597,919 to Dull et al. Release is expressed as a percentage of release obtained with a concentration of (S)-(−)-nicotine resulting in maximal effects. Reported EC50 values are expressed in nM, and Emax values represent the amount released relative to (S)-(−)-nicotine on a percentage basis.
Antagonism of dopamine release can also be evaluated using the assays described in Gradyet al., “Characterization of nicotinic receptor mediated [3H]dopamine release from synaptosomes prepared from mouse striatum,” J. Neurochem. 59: 848-856 (1992) and Soliakov and Wonnacott, “Voltage-sensitive Ca^2+ channels involved in nicotinic receptor-mediated [3H]dopamine release from rat striatal synaptosomes,” J. Neurochem. 67:163-170 (1996).
as §1

rats = assay: Fourteen-day preclinical safety pharmacology study; format: in vivo

Sequence of α4β2 subtype (P43681 29-627 limits assumed): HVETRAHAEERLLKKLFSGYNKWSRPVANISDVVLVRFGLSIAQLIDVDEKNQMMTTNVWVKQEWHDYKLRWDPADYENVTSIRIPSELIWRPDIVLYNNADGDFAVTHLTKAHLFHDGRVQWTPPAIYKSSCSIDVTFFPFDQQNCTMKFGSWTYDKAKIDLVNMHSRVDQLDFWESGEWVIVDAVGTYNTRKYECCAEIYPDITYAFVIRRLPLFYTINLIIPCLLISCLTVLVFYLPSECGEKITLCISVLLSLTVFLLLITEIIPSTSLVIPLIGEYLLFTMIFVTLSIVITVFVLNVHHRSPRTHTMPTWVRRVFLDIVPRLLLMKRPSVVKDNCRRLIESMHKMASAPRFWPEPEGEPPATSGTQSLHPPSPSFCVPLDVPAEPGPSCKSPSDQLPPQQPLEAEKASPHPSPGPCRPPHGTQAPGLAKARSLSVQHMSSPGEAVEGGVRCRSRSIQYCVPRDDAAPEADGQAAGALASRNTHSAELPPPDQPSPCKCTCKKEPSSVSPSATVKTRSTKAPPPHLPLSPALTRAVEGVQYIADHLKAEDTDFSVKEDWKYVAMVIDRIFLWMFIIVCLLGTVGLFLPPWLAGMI
Sequence of α4β2 subtype (P17787 26-502): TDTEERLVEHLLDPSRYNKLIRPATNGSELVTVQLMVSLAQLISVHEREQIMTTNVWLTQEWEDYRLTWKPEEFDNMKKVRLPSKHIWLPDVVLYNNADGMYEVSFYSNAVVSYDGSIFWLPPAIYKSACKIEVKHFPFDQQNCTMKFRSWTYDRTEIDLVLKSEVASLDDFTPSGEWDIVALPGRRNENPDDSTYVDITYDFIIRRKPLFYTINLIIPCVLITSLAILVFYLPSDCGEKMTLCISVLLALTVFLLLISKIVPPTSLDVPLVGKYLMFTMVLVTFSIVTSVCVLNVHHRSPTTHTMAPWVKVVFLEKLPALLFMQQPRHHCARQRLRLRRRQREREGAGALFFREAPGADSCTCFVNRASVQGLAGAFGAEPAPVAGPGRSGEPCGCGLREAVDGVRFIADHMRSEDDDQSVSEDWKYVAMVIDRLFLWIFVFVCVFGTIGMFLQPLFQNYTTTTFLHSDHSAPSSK

## Cl.Cl.c1cncc(N2CCC3(CCCN3)C2)c1 (stereo not drawn) [Sample 1, 7-(3-pyridyl)-1,7-diazaspiro[4.4]nonane dihydrochloride]
α4β2 subtype
  Imax, antagonist at the α4β2 subtype: 50%
α4β2 subtype; read-out: IC50, antagonist at the α4β2 subtype
  IC50: 193 µM
[1]
  Imax, antagonist at NNR subtypes affecting dopamine release: 67%
[1]; read-out: IC50, antagonist at NNR subtypes affecting dopamine release
  IC50: 0.901 µM
rats
  stimulant sensitization properties: without demonstrating stimulant sensitization properties
  weight gain in rats: reduced weight gain
